Reference: patent publication US20030125252A1, “Compositions and methods for affecting osteogenesis” (priority 2002, published 2003)

Key:
MC3T3-E1 cells [1] = test: Cell death, propidium iodide (PI) staining; format: cell-based, mouse; details: for number of PI-stained cells (cell death): MC3T3-E1, single ligand
Procedure: Cultures of MC3T3-E1 were initiated at sub-confluence (1-2×10^4 cells/well) in 24-well plates and allowed to reach confluence prior to the addition of ligands, β-GP and ascorbate. […] Cells were incubated in the presence of the dye for 5 minutes, and images were acquired using epifluorescence with a XF35 filter set (Omega Optical) at low magnification (50×). The number of fluorescent-positive cells per microscopic field (3 mm^2) was counted using Northern Eclipse imaging software.

MC3T3-E1 cells [2] = test: Cell viability, MTT assay; format: cell-based, mouse; details: for cell viability: MC3T3-E1 early stage cultures, data not shown
Procedure: Cell viability was measured in MC3T3-E1 cells using the 3-[4,5-dimethylthiazol-2-yl]-2,5-diphenyltetrazolium bromide (MTT) assay in 96-well plates as described in the Roche Molecular Biochemicals product information. Briefly, cells were cultured to confluence, at which time various concentrations and combinations of ligands were added to the cultures followed by incubation for 24 to 60 hr. MTT substrate to a final concentration of 0.5 mg/ml was added to each well and the incubation was extended for a further 4 hr. At this time, cells were solubilized overnight in 10% sodium dodecyl sulfate (SDS) in 0.01 M HCl and absorbance was measured at 595 nm using a 650 nm reference wavelength.

normal human osteoblasts [3] = test: Normal human osteoblast cultures, cell death and cell number (PI, Hoechst 33342); format: cell-based; details: 1000 nM, 10 days, versus control cultures
Procedure: Normal human osteoblast (NHO) were derived from the long bones of a human donor. The cells were purchased from Clonetics (BioWhittaker Company) and cultured according to their protocols with media and serum obtained from Clonetics. Ligands were added to the cell cultures once the cells had reached confluence. Cells were stained with Hoechst 33342, a DNA stain, to allow visualization of the cell nuclei and allow assessment of cell number (the cell nuclei appear white) (FIGS. 7A-C). FIGS. 7D-F the cells were stained with propidium iodide (a membrane impermeant nucleic acid stain) to allow visualization of dead or dying cells.

normal human osteoblasts [4] = test: Normal human osteoblast cultures, mineralization (alizarin red S, Von Kossa); format: cell-based; details: 1000 nM, versus control cultures
MC3T3-E1 cells [5] = test: Histological analysis of mineralization (Alizarin Red S) in MC3T3-E1 cultures; format: cell-based, mouse; details: for mineralization (Alizarin Red S staining), concentration dependence: MC3T3-E1 mineralizing cultures
Procedure: MC3T3-E1 cells were maintained in Minimum Essential Medium Eagle-modification supplemented with 10% fetal bovine serum (Gibco-BRL) and subcultured as previously described (20). For mineralization, cultures of MC3T3-E1 cells were supplemented with ascorbate (50 μg/ml) and β-glycerolphosphate (β-GP, 10 mM), and the medium was changed every 3 days. These compounds, in addition to ligands, were added to the media once the cultures had reached confluence. MC3T3-637OC stable transfectants were cultured in the same manner and supplemented with active G418 (700 μg/ml). COSP7 cells were cultured in Dulbecco's Modified Eagle's Medium containing 10% FBS and antibiotics. All-trans RA was obtained from Sigma. 4-[E-2-(5,6,7,8-Tetrahydro-5,5,8,8-tetramethyl-2-naphthalenyl)-1-propenyl] benzoic acid (TTNPB), 1,25 VD3 and 9-cis RA were purchased from BioMol.
MC3T3-E1 cells were seeded at 2×10^4 cells/well into 12-well plates, and medium was changed at three-day intervals for a period of 4 weeks. Matrix calcification within the cultures was measured by histological staining with Alizarin Red S (Sigma). Cells were fixed for 10 min in equal parts of 40% formaldehyde and methanol, rinsed briefly in 50% ethanol followed by a rinse in water. Samples were then stained with Alizarin Red S (2% w/v, pH 4.2) for 2 min, followed by a 30-second wash in acetone and allowed to air dry. A Zeiss SV11 dissection microscope connected to a Sony DXC-950 video camera was used to capture digital images. The extent of mineralization for each culture was determined by calculating the percentage of surface area occupied by Alizarin Red S-stained material using Northern Eclipse image analysis software (Empix Imaging Inc.). All images were captured from the center of the well at low magnification, a field which represents ˜65% of the total surface area of the well.

[6] = tested on: OC mRNA in MC3T3-E1 cultures; test: Northern blotting of osteocalcin (OC) mRNA; format: cell-based, mouse; details: MC3T3-E1, 1000 nM
Procedure: Total RNA was isolated with TriPure Isolation Reagent (Roche Molecular Biochemicals) from MC3T3-E1 cultures under mineralizing conditions at various times after culture initiation. RNA samples were separated by electrophoresis of 15 μg aliquots on a 1% agarose-formaldehyde gel. RNA was then transferred to a Hybond-N nylon membrane (Amersham-Pharmacia Biotech) and cross-linked by UV irradiation. Blots were pre-hybridized in Ultrahyb (Ambion) at 45° C. for at least 1 hr. A radiolabeled rat cDNA probe to OC (provided by J. E. Aubin, University of Toronto) was synthesized by random priming. Hybridizations were carried out overnight in Ultrahyb at 42° C. Following hybridization, blots were washed twice with 2×SSC, 0.1% SDS containing buffer for 5 min each at 42° C., followed by two washes in 0.1×SSC, 0.1% SDS for 15 min each at 42° C. and exposed to BioMax X-ray film at −80° C. for 24 hr.

RARγ = molecular target: T1, RARγ (Homo sapiens, UniProt P13631); details: compared with RARα; cited from earlier work
T1 sequence (P13631 1-454): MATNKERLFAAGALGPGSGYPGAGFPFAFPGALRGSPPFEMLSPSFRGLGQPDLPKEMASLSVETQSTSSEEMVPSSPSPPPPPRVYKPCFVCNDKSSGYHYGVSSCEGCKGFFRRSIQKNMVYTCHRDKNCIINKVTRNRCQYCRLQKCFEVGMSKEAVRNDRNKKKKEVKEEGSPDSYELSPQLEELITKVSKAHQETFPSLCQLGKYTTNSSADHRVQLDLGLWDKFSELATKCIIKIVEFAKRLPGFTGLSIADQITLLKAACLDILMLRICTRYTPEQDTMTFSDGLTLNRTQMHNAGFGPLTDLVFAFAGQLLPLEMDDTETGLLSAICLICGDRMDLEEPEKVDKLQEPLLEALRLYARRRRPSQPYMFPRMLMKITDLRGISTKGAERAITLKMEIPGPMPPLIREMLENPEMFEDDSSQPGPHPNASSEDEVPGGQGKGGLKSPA

RARβ = molecular target: T2, RARβ (Homo sapiens, UniProt P10826); details: compared with RARα; cited from earlier work
T2 sequence (P10826 1-455): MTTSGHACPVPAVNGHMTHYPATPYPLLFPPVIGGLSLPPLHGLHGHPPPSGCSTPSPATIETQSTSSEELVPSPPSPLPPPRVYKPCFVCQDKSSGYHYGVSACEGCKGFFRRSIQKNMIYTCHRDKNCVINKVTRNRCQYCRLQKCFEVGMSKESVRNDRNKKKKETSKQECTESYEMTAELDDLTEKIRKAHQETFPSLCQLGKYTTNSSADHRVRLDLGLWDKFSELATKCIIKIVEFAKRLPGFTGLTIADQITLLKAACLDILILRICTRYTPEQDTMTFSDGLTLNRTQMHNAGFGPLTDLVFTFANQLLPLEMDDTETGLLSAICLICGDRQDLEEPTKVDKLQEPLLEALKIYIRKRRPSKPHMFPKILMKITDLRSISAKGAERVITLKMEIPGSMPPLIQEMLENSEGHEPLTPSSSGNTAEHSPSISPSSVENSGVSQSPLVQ

RARα = molecular target: T3, RARα (Homo sapiens, UniProt P10276); details: cited from earlier work
T3 sequence (P10276 1-462): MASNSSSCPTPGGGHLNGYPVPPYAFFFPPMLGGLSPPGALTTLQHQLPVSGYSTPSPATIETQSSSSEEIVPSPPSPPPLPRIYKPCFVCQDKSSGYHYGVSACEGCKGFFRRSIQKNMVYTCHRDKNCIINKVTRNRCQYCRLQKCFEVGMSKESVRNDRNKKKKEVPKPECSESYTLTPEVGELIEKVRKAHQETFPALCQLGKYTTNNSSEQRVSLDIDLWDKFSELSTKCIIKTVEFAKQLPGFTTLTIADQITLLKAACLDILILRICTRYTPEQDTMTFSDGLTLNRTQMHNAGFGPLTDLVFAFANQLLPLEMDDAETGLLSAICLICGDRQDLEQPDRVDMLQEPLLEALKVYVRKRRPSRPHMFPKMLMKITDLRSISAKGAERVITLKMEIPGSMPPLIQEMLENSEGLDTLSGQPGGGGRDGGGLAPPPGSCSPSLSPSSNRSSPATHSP

C/C(=C\c1ccc(C(=O)O)cc1)c1ccc2c(c1)C(C)(C)CCC2(C)C [TTNPB, 4-[E-2-(5,6,7,8-Tetrahydro-5,5,8,8-tetramethyl-2-naphthalenyl)-1-propenyl] benzoic acid]
number of PI-stained cells (cell death) (MC3T3-E1 cells [1]): stimulate cell death | cell viability (MC3T3-E1 cells [2]): concentration-dependent decrease in cell viability

CC1=C(/C=C/C(C)=C\C=C\C(C)=C\C(=O)O)C(C)(C)CCC1 [9-cis RA, 9-cis retinoic acid]
number of PI-stained cells (cell death) (MC3T3-E1 cells [1]): stimulate cell death | cell viability (MC3T3-E1 cells [2]): concentration-dependent decrease in cell viability

CC1=C(/C=C/C(C)=C/C=C/C(C)=C/C(=O)O)C(C)(C)CCC1 [all-trans RA, all-trans retinoic acid]
cell death (PI staining) (normal human osteoblasts [3]): increased cell death | cell number (Hoechst 33342) (normal human osteoblasts [3]): decreased cell number | alizarin red staining (normal human osteoblasts [4]; fifteen day old cultures): reduced alizarin red staining | number of PI-stained cells (cell death) (MC3T3-E1 cells [1]): stimulate cell death | cell viability (MC3T3-E1 cells [2]): concentration-dependent decrease in cell viability

C=C1/C(=C\C=C2/CCC[C@]3(C)[C@@H]([C@H](C)CCCC(C)(C)O)CC[C@@H]23)C[C@@H](O)C[C@@H]1O [1,25 VD3, 1α,25-dihydroxy vitamin-D3]
amount of Alizarin Red-staining (MC3T3-E1 cells [5]; MC3T3-E1, 28 days, 0.1 nM): decrease in the amount of Alizarin Red-staining | mineralization (Alizarin Red S staining), concentration dependence (MC3T3-E1 cells [5]): concentration-dependent decrease in mineralization | potency in raising PI-stained bodies, compared with the RAR-agonist (MC3T3-E1 cells [1]; MC3T3-E1, over the concentration range examined): greater potency than the RAR-agonist | number of PI-stained cells (cell death) (MC3T3-E1 cells [1]): greater number of PI-stained bodies | cell viability (MTT) (MC3T3-E1 cells [2]; MC3T3-E1, 60 hr, individual ligand): decreased cell viability

Cc1ccc(C2=CC(C)(C)Oc3c(Br)cc(C(=O)Nc4ccc(C(=O)O)c(F)c4)cc32)cc1 [AGN194301, 2-Fluoro-4-[(1-(8-bromo-2,2-dimethyl-4-(4-methylphenyl)-2-H-chromen-6-yl)-methanoyl)-amino]-benzoic acid]
OC expression [6]: stimulated OC expression | culture time after which strong OC mRNA expression became evident ([6]; wild-type cultures 18 days): 12 days | bone formation relative to control cultures (MC3T3-E1 cells [5]; 100 nM AGN194301 added to cultures treated with 10 nM 1,25 VD3): ~70% | increase of Alizarin Red S staining over untreated controls (MC3T3-E1 cells [5]; MC3T3-E1, 28 days, 10 nM): approximately 3 fold | culture surface area stained with Alizarin Red S (MC3T3-E1 cells [5]; MC3T3-E1, 28 days, 1 μM, control cultures approximately 18%): approximately 95% | mineralization (Alizarin Red S staining), concentration dependence (MC3T3-E1 cells [5]): concentration-dependent increase in Alizarin Red S staining | mineral deposition (Von Kossa, calcium phosphate) (normal human osteoblasts [4]; 19 days of ligand treatment): stimulates mineral deposition | affinity for RARγ (RARγ): lower affinity | number of PI-positive cells relative to 1,25 VD3 treated culture (MC3T3-E1 cells [1]; AGN194301 added to 1,25 VD3-treated cultures, 36 hr): less than 20% | appearance of PI-positive cells (MC3T3-E1 cells [1]; MC3T3-E1, AGN194301 alone): no appreciable effect | affinity for RARβ (RARβ): lower affinity | affinity for RARα (RARα): high affinity | antagonism of RARα (RARα): potent antagonist
